From patent publication US11649232B2, “Synthetic dimeric cinchona alkaloids against cancer” (Ares Pharmaceuticals, LLC, priority 2021, dated 2023)

Assays:
Assay type in all cases: cell-based, human
[1] = tested on: LOUCY (adult T-lineage ALL) cell line; test: Flow cytometric Annexin V-FITC/PI apoptosis assay
Text: (§1) Cell lines and Apoptosis Assays. We used the human leukemia cell lines ALL-1 (Ph+ adult ALL, B-lineage), LOUCY (adult T-lineage ALL; ATCC® CRL-2629™), and RAJI (Burkitt's leukemia/lymphoma; ATCC®, CCL-86) as targets to evaluate the anti-leukemic activity of cinchona alkaloids. In vivo leukemia initiating xenograft clones capable of causing disseminated and fatal leukemia in NOD-SCID mice, derived from primary leukemia cells of 5 patients with relapsed ALL, and the aforementioned 3 leukemia cells lines were treated for 24 hours or 48 hours at 37° C. with cinchona alkaloids at increasing concentrations ranging from 0.5 μM to 50 μM. Controls cells were treated with vehicle (PBS).
(§2) Apoptotic death was monitored using multiparameter flow cytometry, as previously reported (Uckun, F. M. et al., British Journal of Haematology, 2011, 153:741-752; Uckun, F. M. et al., J Clin Invest., 2015, 125:1006-18). Controls included vehicle (PBS) treated cells (CON). Cells were analyzed for apoptosis using the standard quantitative flow cytometric apoptosis assay using the Annexin V-FITC Apoptosis Detection Kit from Sigma. The labeled cells were analyzed on a LSR II flow cytometer. The percent apoptosis was calculated using the formula: 100−100×(Percentage of non-apoptotic cells in test sample/Percentage of non-apoptotic cells in untreated control sample). The percentages for Annexin V FITC^−PI^− viable cells and Annexin V-FITC^+PI^+ advanced apoptotic cells for each sample are indicated in the respective quadrants of the depicted two-color fluorescence dot plots.
as §1, with “We” for “Cell lines and Apoptosis Assays. We”, “ARES-BI-C001453. […]” for “cinchona alkaloids.”, “ARES-BI-C001453” for “cinchona alkaloids”

[2] = tested on: ALL-1 (Ph+ adult ALL, B-lineage) cell line; test: Flow cytometric Annexin V-FITC/PI apoptosis assay
Text: as §1, §2
as §1, with “We” for “Cell lines and Apoptosis Assays. We”, “ARES-BI-C001453. […]” for “cinchona alkaloids.”, “ARES-BI-C001453” for “cinchona alkaloids”

[3] = tested on: RAJI (Burkitt's leukemia/lymphoma) cell line; test: Flow cytometric Annexin V-FITC/PI apoptosis assay
Text: as §1, §2
as §1, with “We” for “Cell lines and Apoptosis Assays. We”, “ARES-BI-C001453. […]” for “cinchona alkaloids.”, “ARES-BI-C001453” for “cinchona alkaloids”

[4] = tested on: BT-20 and PC-3 cells; test: Clonogenic assay, pooled 4 experiments (2 PC-3, 2 BT-20); settings: 10 μM, BT-20 and PC-3
Procedure: (§3) Clonogenic Assays. The cytotoxicity of cinchona alkaloids was tested against clonogenic human cancer cells was examined using a methylcellulose colony assay system, as described previously (Uckun, F. M. et al., J. Exp. Med., 1986, 163: 347-68; Uckun, F. M. et al., J. Clin. Invest., 1993, 91: 1044-1051). In brief, cells (10^5 cells/ml in RPMI-10% fetal bovine serum) were treated for 8 hours at 37° C. with cinchona alkaloids at varying concentrations. After treatment, cells were washed twice, and resuspended in clonogenic medium consisting of RPMI 1640 supplemented with 0.9% methylcellulose, 10% fetal bovine serum, and 50 μM 2-mercaptoethanol. Cells were plated at 5×10^4 cells/ml in RPMI 1640 supplemented with 10% fetal bovine serum, and 0.9% methylcellulose in duplicate 35-mm Petri dishes, and cultured for 7 days at 37° C. in a humidified 5% CO2 incubator. Subsequently, cancer cell colonies were enumerated on a grid using an inverted phase-contrast microscope of high optical resolution. Results were expressed as the % Inhibition=[1−(Number of colonies in compound-treated test cultures/Number of colonies in vehicle-treated control cultures)]×100.
as §3, with “cytotoxicity of synthetic dimeric cinchona alkaloids” for “cytotoxicity of cinchona alkaloids”

[5] = tested on: BT-20 triple-negative breast cancer cell line; test: Clonogenic assay (methylcellulose colony assay)
Procedure: as §3
as §3, with “cytotoxicity of synthetic dimeric cinchona alkaloids” for “cytotoxicity of cinchona alkaloids”

[6] = tested on: ALL-1 BCR-ABL/Ph+ B-lineage ALL cell line; test: Clonogenic assay (methylcellulose colony assay)
Procedure: as §3
as §3, with “cytotoxicity of synthetic dimeric cinchona alkaloids” for “cytotoxicity of cinchona alkaloids”

[7] = tested on: PC-3 castration-resistant prostate cancer cell line; test: Clonogenic assay (methylcellulose colony assay)
Procedure: as §3
as §3, with “cytotoxicity of synthetic dimeric cinchona alkaloids” for “cytotoxicity of cinchona alkaloids”

[8] = Homo sapiens, read-out: IC50 (apoptosis)

CCC1CC23[C@H]([C@H](Oc4nnc(O[C@@H](c5ccnc6ccc(OC)cc56)[C@H]5CC6CCN5CCC6(O)CC)c5ccccc45)c4ccnc5ccc(OC)cc45)N2CC[C@@H]13 (stereo partly shown) [ARES-BI-C002453]
IC50 [1, 8]: 1.5 µM
fold higher IC50 value than ARES-BI-C001453 ([1]; LOUCY): 35.7 fold
fold higher IC50 value than ARES-BI-C001453 ([2]; ALL-1): 9.4 fold
IC50 [2, 8]: 7.3 µM
IC50 ([3]; Homo sapiens, Raji, read-out: IC50 (apoptosis)): 16.7 µM
fold higher IC50 value than ARES-BI-C001453 ([3]; RAJI): 1.9 fold

CCC1CN2CCC1CC2C(Oc1nnc(OC(c2ccnc3ccc(OC)cc23)C2CC3CCN2CC3CC)c2ccccc12)c1ccnc2ccc(OC)cc12 (stereo not shown) [Compound C61, 1,4-Bis (9-O dihydroquinidinyl)phthalazine/hydroquinidine 1,4-phathalazinediyl diether, reference compound]
inhibition of clonogenic growth (mean±SE) [4]: 53.2±11.3%
mean number of residual clones forming colonies [4]: 59.8±6.3 /5×10^4 cells
% Inhibition ([5]; BT-20 EXP#1, 10 μM): 45.9%
Colonies/5 × 10^4 Cells ([5]; BT-20 EXP#1, 10 μM): 53.0 Colonies/5 × 10^4 Cells
% Inhibition ([5]; BT-20 EXP#2, 10 μM): 31.6%
Colonies/5 × 10^4 Cells ([5]; BT-20 EXP#2, 10 μM): 78.0 Colonies/5 × 10^4 Cells
in vitro colony formation by ALL-1 cells ([6]; 10 μM): abrogated the in vitro colony formation
% Inhibition ([6]; ALL-1 EXP#1, 10 μM): >99.7%
Colonies/5 × 10^4 Cells ([6]; ALL-1 EXP#1, 10 μM): 0.0 Colonies/5 × 10^4 Cells
% Inhibition ([6]; ALL-1 EXP#2, 10 μM): >99.6%
Colonies/5 × 10^4 Cells ([6]; ALL-1 EXP#2, 10 μM): 0.0 Colonies/5 × 10^4 Cells
inhibition of clonogenic growth ([7]; PC3 cells, 10 μM): 67.7%
% Inhibition ([7]; PC-3 EXP#1, 10 μM): 77.9%
Colonies/5 × 10^4 Cells ([7]; PC-3 EXP#1, 10 μM): 41.0 Colonies/5 × 10^4 Cells
% Inhibition ([7]; PC-3 EXP#2, 10 μM): 57.5%
Colonies/5 × 10^4 Cells ([7]; PC-3 EXP#2, 10 μM): 67.0 Colonies/5 × 10^4 Cells
